Assay results published in patent publication US20150282488A1, “COMPOSITIONS AND METHODS FOR CONTROLLING PLANT-PARASITE NEMATODE” (BAYER CROPSCIENCE LP, priority 2012, published 2015).

Test system: R. reniformis
Test: Greenhouse trial with treated cotton seeds in autoclaved soil
Type: in vivo, Rotlyenchulus reniformis
Conditions: seed treatment 500 g ai/100 kg
Description: Anti-nematodal activity is understood as meaning any activity useful in controlling or killing nematodes, such as reducing nematode egg hatching or paralyzing juveniles of nematodes. Testing for anti-nematodal activity is done both in-vitro and in-vivo through laboratory and greenhouse procedures. In-vitro testing can involve testing eggs and/or juvenile nematodes in selective media in small 96-well plates and measurements done by microscopic evaluations. Proper control treatments would be combined to monitor and compare activity. Under greenhouse studoes soil was autoclaved using two 90 minute cycles at 130° C. at […] pressure with a 24 hour cool down between cycles to remove any natural competition for the microflora. The vermiform stages were extracted from the soil by the modified gravity screening and sucrose centrifugation-flotation. Eggs stages were extracted from cotton roots by shaking the root system in a 1% NaOCl solution for four minutes at 120 rpm. The nematode suspension was collected and rinsed with water through a 25 μm sieve. Females in roots were stained with acid fuschin to facilitate enumeration of the females invading the root. Variables measured included plant height, shoot and root weights, females and eggs per gram of root, and the number of vermiform life stages in soil. […]
Rotlyenchulus reniformis vermiform life stages were extracted from the soil by modified gravity screening and sucrose centrifugation-flotation. […] Vermiform life stages and eggs were counted under an inverted TS 100 Nikon microscope at 40× magnification. Females embedded in the root systems were quantified at 5× magnification utilizing the Nikon SMZ800 […] microscope. Variables measured were plant height, shoot and root weight, females and eggs per gram of root, and the number of vermiform life stages in 500 cm^3 of soil. […] Data were analyzed in SAS 9.1 (SAS Institute Inc.). The distributional assumption was evaluated with the student panel graphs of the GLIMMIX procedure. […]

SMILES: O=[N+]([O-])NC1=NCCN1Cc1ccc(Cl)nc1 [imidacloprid]
- effect on R. reniformis life stages: did not have any effect
- effect on cotton plant growth: did not have any effect
- nematicidal activity: did not show any nematicidal activity
